Columns and labels:
[1] = system: MELAS patient fibroblasts; assay: Oxygen consumption and mitochondrial ATP rate in MELAS patient fibroblasts; format: cell-based, human; conditions: 10 μM, 48 h
Description: FIGS. 8A-8D: MNRR1 activation using tizoxanide enhances mitochondrial function, mitophagy, and protects from LPS-induced inflammation in MELAS patient fibroblasts. FIG. 8A: Equal amounts of lysates from MELAS patient fibroblast (MF 1, 2, or 3) lysates treated with vehicle (DMSO) or tizoxanide (10 μM) for 48 h were separated on an SDS-PAGE gel and probed for LC3B, PGC1a, MNRR1, MTCO2, TOM20, and phospho-ubiquitin (S65) levels. GAPDH orTubulin was probed as a loading control. FIG. 8B: Oxygen consumption measured from MELAS patient fibroblasts treated with vehicle (DMSO) or tizoxanide (10 μM) for 48 h (n=4 biological replicates, mean±SE). FIG. 8C: Mitochondrial ATP rate measured in MELAS patient fibroblasts treated with vehicle (DMSO) or tizoxanide (10 μM) for 48 h (n=4 biological replicates, mean±SE). FIG. 8D: Heatmap representation of ROS and TNFα transcript levels from MELAS patient fibroblasts treated with vehicle (DMSO), LPS (DMSO+500 ng/mL LPS), or LPS plus tizoxanide (10 μM tizoxanide+500 ng/mL LPS) for 24 h (n=4 biological replicates). […]
(§1) Intact cellular oxygen consumption and measurement of ATP: Cellular oxygen consumption was measured with a Seahorse XFe24 Bioanalyzer (Agilent). Cells were plated at a concentration of 3.5×10^4 per well a day prior to treatment and basal oxygen consumption was measured 48 h after treatments, as described. […]

MELAS cybrid cells = assay: Oxygen consumption of MELAS cybrid cells (Seahorse); format: cell-based, human; conditions: 10 μM, 48 h
Description: FIGS. 7A-7E: MNRR1 activation by tizoxanide enhances mtDNA biogenesis and mitophagy to shift heteroplasmy in MELAS cells. FIG. 7A: Oxygen consumption measured from MELAS cybrid cells treated with vehicle (DMSO) or tizoxanide (10 μM) for 48 h (n=4 biological replicates, error bars represent SE). FIG. 7B: Haelll restriction enzyme digestion of a PCR-amplified fragment of mtDNA harboring the m.3243A>G mutation from DW7 cells treated with vehicle (DMSO) or tizoxanide (10 μM) for 144 h. […] FIG. 7C: Genes identified using qPCR of MELAS cybrid cells stably overexpressing EV or MNRR1. FIG. 7D: MtDNA levels are shown relative to nuclear DNA (nDNA) (GAPDH) (n=5 biological replicates, error bars represent SE). […]
FIGS. 11A-11F: RBPJk and HIF2α compete for binding at the ORE in the MNRR1 promoter to regulate transcription. […] FIG. 11E: Oxygen consumption measured from Control or HIFα knockdown (KD) MELAS cybrid cells. […] FIG. 11F: Left, Oxygen consumption measured from MELAS cybrid cells treated with vehicle (DMSO) or PT2385 (10 μM), an inhibitor of HIF2α function, for 24 h. […]
as §1

[2] = system: inflammatory factors such as ll6, ll1b, Tnf, and Tlr4; assay: High-throughput RT qPCR of inflammatory factors in decidua; format: in vivo, mouse; conditions: LPS-injected dams
Description: FIGS. 3A & 3B. The transcript levels of several inflammatory factors such as 116, Illb, Tnf, and Tlr4, among others, were assessed in the decidual samples and increased expression was found in dams intra-amniotically injected with LPS that was abrogated upon treatment with nitazoxanide.
High-throughput RT qPCR: This was performed as previously described (Motomura et al., JCI Insight, 7, 2022). Briefly, total RNA was isolated from decidua with RNeasy Mini Kits (Qiagen), according to the manufacturer's instructions. RNA concentrations, purity, and integrity were evaluated with the NanoDrop 8000 spectrophotometer (Thermo Scientific, Wilmington, DE, USA) and the Bioanalyzer 2100 (Agilent Technologies, Wilmington, DE, USA). cDNA was synthesized by using SuperScript IV VILO Master Mix (Invitrogen by Thermo Fisher Scientific Baltics UAB, Vilnius, Lithuania). Gene expression profiling of the tissues was performed on the BioMark System for high-throughput RT-qPCR (Fluidigm, San Francisco, CA, USA) or the ABI 7500 Fast real-time PCR system (Applied Biosystems, Life Technologies Corporation, Pleasanton, CA, USA) with the TaqMan gene expression assays (Applied Biosystems, Life Technologies Corporation). […] Data were normalized by using multiple reference genes (Gusb, Hsp90abl, Gapdh, and Actb) averaged within each sample, and relative changes in transcript levels were calculated by the AACt method. […]

Structure (SMILES)	OCR [1]	mitochondrial ATP levels [1]	oxygen consumption (MELAS cybrid cells)	LPS-increased transcript levels of inflammatory factors in decidual samples [2]
O=C(Nc1ncc([N+](=O)[O-])s1)c1ccccc1O [tizoxanide, Tizoxanide]	enhanced	enhanced	increased	
CC(=O)Oc1ccccc1C(=O)Nc1ncc([N+](=O)[O-])s1 [nitazoxanide, Nitazoxanide]				abrogated

Reference: patent US20250241901A1, “ACTIVATION OF MNRR1 / CHCHD2 AS A THERAPEUTIC TARGET FOR MITOCHONDRIA ASSOCIATED DISORDERS” (Wayne State University, priority 2024, published 2025)
